Results: article PMC4420865 (Journal of Cerebral Blood Flow & Metabolism, 2015)
pEC50, pKi: −log10 of the molar value.

What was measured:
[1] = Adverse reactions during tariquidar infusion; type: in vivo, human
[2] = Tariquidar plasma concentrations during PET scan 2; type: in vivo, human
[3] = cited from earlier work
Pgp at the human BBB [4] = settings: humans, tariquidar 6 mg/kg body weight; cited from earlier work
human Pgp = human Pgp (Homo sapiens, UniProt P08183); assay: Inhibition of transport of [^3H]verapamil by human Pgp; type: biochemical
Sequence of human Pgp (P08183 whole entry): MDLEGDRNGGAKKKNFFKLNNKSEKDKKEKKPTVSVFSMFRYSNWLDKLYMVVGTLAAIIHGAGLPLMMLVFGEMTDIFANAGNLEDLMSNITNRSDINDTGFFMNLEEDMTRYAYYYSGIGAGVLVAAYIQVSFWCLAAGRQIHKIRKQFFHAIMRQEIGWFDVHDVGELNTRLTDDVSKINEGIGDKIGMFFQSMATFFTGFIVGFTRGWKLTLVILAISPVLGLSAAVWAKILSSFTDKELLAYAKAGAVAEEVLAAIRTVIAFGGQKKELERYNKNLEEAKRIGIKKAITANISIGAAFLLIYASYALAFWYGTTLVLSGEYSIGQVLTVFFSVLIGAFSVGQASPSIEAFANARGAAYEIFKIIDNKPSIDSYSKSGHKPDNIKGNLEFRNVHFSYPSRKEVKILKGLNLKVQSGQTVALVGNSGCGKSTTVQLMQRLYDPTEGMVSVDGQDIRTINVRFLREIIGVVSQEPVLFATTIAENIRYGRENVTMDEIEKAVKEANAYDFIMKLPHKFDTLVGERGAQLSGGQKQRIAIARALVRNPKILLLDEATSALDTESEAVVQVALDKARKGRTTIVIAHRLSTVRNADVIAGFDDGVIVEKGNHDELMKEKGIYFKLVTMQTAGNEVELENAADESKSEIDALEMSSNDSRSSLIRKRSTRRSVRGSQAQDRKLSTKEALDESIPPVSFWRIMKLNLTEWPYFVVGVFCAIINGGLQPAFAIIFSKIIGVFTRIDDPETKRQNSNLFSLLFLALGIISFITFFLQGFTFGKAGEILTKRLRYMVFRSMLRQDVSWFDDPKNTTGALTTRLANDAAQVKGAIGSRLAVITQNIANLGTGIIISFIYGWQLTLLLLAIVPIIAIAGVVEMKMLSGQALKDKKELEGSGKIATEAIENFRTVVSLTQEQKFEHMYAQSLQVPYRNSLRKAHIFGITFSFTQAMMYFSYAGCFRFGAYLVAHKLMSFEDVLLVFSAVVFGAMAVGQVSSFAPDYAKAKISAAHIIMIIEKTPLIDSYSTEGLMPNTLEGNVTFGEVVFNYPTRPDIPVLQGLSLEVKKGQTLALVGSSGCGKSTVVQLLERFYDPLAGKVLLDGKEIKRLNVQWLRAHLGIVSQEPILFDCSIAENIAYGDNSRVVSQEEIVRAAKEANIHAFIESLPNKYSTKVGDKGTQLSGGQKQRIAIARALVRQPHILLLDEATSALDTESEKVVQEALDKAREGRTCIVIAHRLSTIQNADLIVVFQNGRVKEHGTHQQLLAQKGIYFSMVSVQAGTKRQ

Pgp at the human BBB [5] = settings: cited from earlier work

In the case of `COc1cc2c(cc1OC)CN(CCc1ccc(NC(=O)c3cc(OC)c(OC)cc3NC(=O)c3cnc4ccccc4c3)cc1)CC2` [tariquidar], the “Subjects with mild adverse reactions most likely related to tariquidar” value ([1]; five healthy men, mean dose 5.9±1.0 mg/kg i.v. infusion) was “four out of five subjects”, the “Dizziness, N subjects” value ([1]; of five subjects) was 1 and the “Metallic taste in the mouth, N subjects” value ([1]; of five subjects) was 3. The “Mean tariquidar plasma concentration during the PET scan” value ([2]; continuous i.v. infusion, mean dose 5.9±1.0 mg/kg, mean±s.d.) was 2,873±517 nmol/L, the “Mean tariquidar plasma concentration, times higher than in previous study” value ([2]; versus previous study ref 7) was 2–3 times and the “Fraction of unbound tariquidar in human plasma” value [3] was 0.0063±0.0021. The “Increase in brain distribution of [^11C]N-desmethyl-loperamide” value (Pgp at the human BBB [4]) was 223%, the pKi (human Pgp) was 8.07 and the “Increase in brain distribution of (R)-[^11C]verapamil” value (Pgp at the human BBB [5]; humans, tariquidar 6 mg/kg body weight) was 129%. For the same molecule, the pEC50 (Pgp at the human BBB [5]; read-out: Previously estimated EC50 of tariquidar in humans, enhancement of brain uptake of (R)-[^11C]verapamil) was 6.06.
